Numbered stars: 1 amine (or outer) side, 2 acyl side, 3 side chain; on linkers, the order of the positions; unused ones are H or OH. Bridge positions count the residues as written; N and C are the ends. Square brackets hold non-standard residues; d marks the D form. Side chains are listed from the residue outwards. Peptide text beside a SMILES is read from it. * marks the point of attachment. C20 diacid = O=C(O)CCCCCCCCCCCCCCCCCCC(=O)*; C18 diacid = O=C(O)CCCCCCCCCCCCCCCCC(=O)*; γGlu = O=C(O)[C@H](CCC(=O)[*:2])N[*:1]; Hyp = O=C(O)[C@@H]1C[C@@H](O)CN1; AEEA = NCCOCCOCC(=O)O
biological target: T1, human amylin receptor (Homo sapiens, UniProt O60896+P30988); assay: Luciferase assay of amylin derivatives in amylin receptor/CRE-luc CHO cell line; assay type: cell-based; settings: CHO-K1/Ga15/AMY3 CRE-luc cells, 24 hours incubation, F12 medium containing 10% FBS; read-out: EC50
T1 construct: host or cells: CHO-K1/Ga15/AMY3 cells, further stably transfected with a CRE-luciferase plasmid
T1 sequence (P30988 25-474): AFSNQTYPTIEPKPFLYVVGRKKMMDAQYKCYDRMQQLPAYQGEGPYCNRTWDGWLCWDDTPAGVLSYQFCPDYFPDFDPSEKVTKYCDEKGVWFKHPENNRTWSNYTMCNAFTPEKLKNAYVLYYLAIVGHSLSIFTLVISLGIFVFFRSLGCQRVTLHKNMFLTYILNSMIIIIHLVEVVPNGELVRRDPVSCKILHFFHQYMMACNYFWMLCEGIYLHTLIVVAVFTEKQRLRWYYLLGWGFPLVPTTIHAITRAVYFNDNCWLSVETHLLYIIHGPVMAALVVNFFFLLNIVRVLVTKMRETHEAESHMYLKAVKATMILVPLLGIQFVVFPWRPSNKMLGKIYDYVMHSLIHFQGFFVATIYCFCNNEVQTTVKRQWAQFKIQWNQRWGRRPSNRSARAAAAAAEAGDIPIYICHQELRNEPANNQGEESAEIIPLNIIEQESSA
T1 sequence (O60896 24-148 partner): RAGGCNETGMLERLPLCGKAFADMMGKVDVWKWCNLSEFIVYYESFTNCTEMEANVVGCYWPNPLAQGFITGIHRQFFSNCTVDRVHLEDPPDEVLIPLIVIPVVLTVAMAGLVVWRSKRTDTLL
Experimental: The experiment was intended to detect the activity or efficacy of the amylin derivatives on a human amylin receptor in vitro by luciferase assay.
50 μL of growth medium (F12 medium containing 10% FBS) was added into each well of a white 96-well plate, and the stably transfected amylin/CRE-lue CHO cells were inoculated into the white 96-well plate at a density of about 20,000 cells/well for activity determination.

EC50 [nM]	SMILES
0.03	CC[C@H](C)[C@H](NC(=O)[C@@H]1CCCN1C(=O)CNC(=O)[C@H](CC(C)C)NC(=O)[C@H](CCCCNC(=O)COCCOCCNC(=O)CC[C@H](NC(=O)CCCCCCCCCCCCCCCCCCC(=O)O)C(=O)O)NC(=O)[C@H](CC(N)=O)NC(=O)[C@H](CO)NC(=O)[C@H](CO)NC(=O)[C@H](Cc1c[nH]cn1)NC(=O)[C@H](CCCNC(=N)N)NC(=O)[C@H](CC(C)C)NC(=O)[C@H](Cc1ccccc1)NC(=O)[C@H](CC(=O)O)NC(=O)[C@H](C)NC(=O)[C@H](CC(C)C)NC(=O)[C@H](CCCNC(=N)N)NC(=O)[C@H](CCC(N)=O)NC(=O)[C@@H](NC(=O)[C@H](C)NC(=O)[C@@H]1CSSC[C@H](NC(=O)[C@@H](N)CCCNC(=N)N)C(=O)N[C@@H](CC(N)=O)C(=O)N[C@@H]([C@@H](C)O)C(=O)N[C@@H](C)C(=O)N[C@@H]([C@@H](C)O)C(=O)N1)[C@@H](C)O)C(=O)N[C@@H](CC(C)C)C(=O)N1CCC[C@H]1C(=O)N1CCC[C@H]1C(=O)N[C@H](C(=O)N[C@@H](CC(N)=O)C(=O)N[C@H](C(=O)NCC(=O)N[C@@H](CO)C(=O)N[C@@H](CC(N)=O)C(=O)N[C@H](C(=O)N1C[C@H](O)C[C@H]1C(N)=O)[C@@H](C)O)C(C)C)[C@@H](C)O [PD112] (H-RCNTATCATQRLADFLRHSSNK([AEEA-γGlu-C20 diacid])LGPILPPTNVGSNT[Hyp]-NH2; disulfide 2-7)
0.026	CC[C@H](C)[C@H](NC(=O)[C@@H]1CCCN1C(=O)[C@H](CCCCNC(=O)COCCOCCNC(=O)CC[C@H](NC(=O)CCCCCCCCCCCCCCCCCCC(=O)O)C(=O)O)NC(=O)[C@H](CC(C)C)NC(=O)[C@H](CC(N)=O)NC(=O)[C@H](CC(N)=O)NC(=O)[C@H](CO)NC(=O)[C@H](CO)NC(=O)[C@H](Cc1c[nH]cn1)NC(=O)[C@H](CCCNC(=N)N)NC(=O)[C@H](CC(C)C)NC(=O)[C@H](Cc1ccccc1)NC(=O)[C@H](CC(=O)O)NC(=O)[C@H](C)NC(=O)[C@H](CC(C)C)NC(=O)[C@H](CCCNC(=N)N)NC(=O)[C@H](CCC(N)=O)NC(=O)[C@@H](NC(=O)[C@H](C)NC(=O)[C@@H]1CSSC[C@H](NC(=O)[C@@H](N)CCCNC(=N)N)C(=O)N[C@@H](CC(N)=O)C(=O)N[C@@H]([C@@H](C)O)C(=O)N[C@@H](C)C(=O)N[C@@H]([C@@H](C)O)C(=O)N1)[C@@H](C)O)C(=O)N[C@@H](CC(C)C)C(=O)N1CCC[C@H]1C(=O)N1CCC[C@H]1C(=O)N[C@H](C(=O)N[C@@H](CC(N)=O)C(=O)N[C@H](C(=O)NCC(=O)N[C@@H](CO)C(=O)N[C@@H](CC(N)=O)C(=O)N[C@H](C(=O)N1C[C@H](O)C[C@H]1C(N)=O)[C@@H](C)O)C(C)C)[C@@H](C)O [PD106] (H-RCNTATCATQRLADFLRHSSNNLK([AEEA-γGlu-C20 diacid])PILPPTNVGSNT[Hyp]-NH2; disulfide 2-7)

Further lines, the molecule ahead of its results:

SMILES	EC50 [nM]
CC[C@H](C)[C@H](NC(=O)[C@@H]1CCCN1C(=O)[C@H](CCCNC(=N)N)NC(=O)[C@H](CC(C)C)NC(=O)[C@H](CC(N)=O)NC(=O)[C@H](CC(N)=O)NC(=O)[C@H](CO)NC(=O)[C@H](CO)NC(=O)[C@H](Cc1c[nH]cn1)NC(=O)[C@H](CCCNC(=N)N)NC(=O)[C@H](CC(C)C)NC(=O)[C@H](Cc1ccccc1)NC(=O)[C@H](CC(=O)O)NC(=O)[C@H](C)NC(=O)[C@H](CC(C)C)NC(=O)[C@H](CCCNC(=N)N)NC(=O)[C@H](CCC(N)=O)NC(=O)[C@@H](NC(=O)[C@H](C)NC(=O)[C@@H]1CSSC[C@H](NC(=O)[C@H](CCCNC(=N)N)NC(=O)CC[C@H](NC(=O)CCCCCCCCCCCCCCCCCCC(=O)O)C(=O)O)C(=O)N[C@@H](CC(N)=O)C(=O)N[C@@H]([C@@H](C)O)C(=O)N[C@@H](C)C(=O)N[C@@H]([C@@H](C)O)C(=O)N1)[C@@H](C)O)C(=O)N[C@@H](CC(C)C)C(=O)N1CCC[C@H]1C(=O)N1CCC[C@H]1C(=O)N[C@H](C(=O)N[C@@H](CC(N)=O)C(=O)N[C@H](C(=O)NCC(=O)N[C@@H](CO)C(=O)N[C@@H](CC(N)=O)C(=O)N[C@H](C(=O)N1CCC[C@H]1C(N)=O)[C@@H](C)O)C(C)C)[C@@H](C)O [PD197] ({C20 diacid-γGlu}-RCNTATCATQRLADFLRHSSNNLRPILPPTNVGSNTP-NH2; disulfide 2-7 (inferred))	0.025
CC[C@H](C)[C@H](NC(=O)[C@@H]1CCCN1C(=O)CNC(=O)[C@H](CCCCNC(=O)COCCOCCNC(=O)COCCOCCNC(=O)CC[C@H](NC(=O)CCCCCCCCCCCCCCCCCCC(=O)O)C(=O)O)NC(=O)[C@H](CC(N)=O)NC(=O)[C@H](CC(N)=O)NC(=O)[C@H](CO)NC(=O)[C@H](CO)NC(=O)[C@H](Cc1c[nH]cn1)NC(=O)[C@H](CCCNC(=N)N)NC(=O)[C@H](CC(C)C)NC(=O)[C@H](Cc1ccccc1)NC(=O)[C@H](CC(=O)O)NC(=O)[C@H](C)NC(=O)[C@H](CC(C)C)NC(=O)[C@H](CCCNC(=N)N)NC(=O)[C@H](CCC(N)=O)NC(=O)[C@@H](NC(=O)[C@H](C)NC(=O)[C@@H]1CSSC[C@H](NC(=O)[C@@H](N)CCCNC(=N)N)C(=O)N[C@@H](CC(N)=O)C(=O)N[C@@H]([C@@H](C)O)C(=O)N[C@@H](C)C(=O)N[C@@H]([C@@H](C)O)C(=O)N1)[C@@H](C)O)C(=O)N[C@@H](CC(C)C)C(=O)N1CCC[C@H]1C(=O)N1CCC[C@H]1C(=O)N[C@H](C(=O)N[C@@H](CC(N)=O)C(=O)N[C@H](C(=O)NCC(=O)N[C@@H](CO)C(=O)N[C@@H](CC(N)=O)C(=O)N[C@H](C(=O)N1C[C@H](O)C[C@H]1C(N)=O)[C@@H](C)O)C(C)C)[C@@H](C)O [PD083] (H-RCNTATCATQRLADFLRHSSNNK([AEEA-AEEA-γGlu-C20 diacid])GPILPPTNVGSNT[Hyp]-NH2; disulfide 2-7)	0.037
CC[C@H](C)[C@H](NC(=O)[C@H](CCCCNC(=O)COCCOCCNC(=O)CC[C@H](NC(=O)CCCCCCCCCCCCCCCCC(=O)O)C(=O)O)NC(=O)CNC(=O)[C@H](CC(C)C)NC(=O)[C@H](CC(N)=O)NC(=O)[C@H](CC(N)=O)NC(=O)[C@H](CO)NC(=O)[C@H](CO)NC(=O)[C@H](Cc1c[nH]cn1)NC(=O)[C@H](CCCNC(=N)N)NC(=O)[C@H](CC(C)C)NC(=O)[C@H](Cc1ccccc1)NC(=O)[C@H](CC(=O)O)NC(=O)[C@H](C)NC(=O)[C@H](CC(C)C)NC(=O)[C@H](CCCNC(=N)N)NC(=O)[C@H](CCC(N)=O)NC(=O)[C@@H](NC(=O)[C@H](C)NC(=O)[C@@H]1CSSC[C@H](NC(=O)[C@@H](N)CCCNC(=N)N)C(=O)N[C@@H](CC(N)=O)C(=O)N[C@@H]([C@@H](C)O)C(=O)N[C@@H](C)C(=O)N[C@@H]([C@@H](C)O)C(=O)N1)[C@@H](C)O)C(=O)N[C@@H](CC(C)C)C(=O)N1CCC[C@H]1C(=O)N1CCC[C@H]1C(=O)N[C@H](C(=O)N[C@@H](CC(N)=O)C(=O)N[C@H](C(=O)NCC(=O)N[C@@H](CO)C(=O)N[C@@H](CC(N)=O)C(=O)N[C@H](C(=O)N1C[C@H](O)C[C@H]1C(N)=O)[C@@H](C)O)C(C)C)[C@@H](C)O [PD121] (H-RCNTATCATQRLADFLRHSSNNLGK([AEEA-γGlu-C18 diacid])ILPPTNVGSNT[Hyp]-NH2; disulfide 2-7)	0.018
CC[C@H](C)[C@H](NC(=O)[C@@H]1CCCN1C(=O)[C@H](CCCCNC(=O)CC[C@H](NC(=O)CCCCCCCCCCCCCCCCCCC(=O)O)C(=O)O)NC(=O)[C@H](CC(C)C)NC(=O)[C@H](CC(N)=O)NC(=O)[C@H](CC(N)=O)NC(=O)[C@H](CO)NC(=O)[C@H](CO)NC(=O)[C@H](Cc1c[nH]cn1)NC(=O)[C@H](CCCNC(=N)N)NC(=O)[C@H](CC(C)C)NC(=O)[C@H](Cc1ccccc1)NC(=O)[C@H](CCC(=O)O)NC(=O)[C@H](C)NC(=O)[C@H](CC(C)C)NC(=O)[C@H](CCCNC(=N)N)NC(=O)[C@H](CCC(N)=O)NC(=O)[C@@H](NC(=O)[C@H](C)NC(=O)[C@@H]1CSSC[C@H](NC(=O)[C@@H](N)CCCNC(=N)N)C(=O)N[C@@H](CC(N)=O)C(=O)N[C@@H]([C@@H](C)O)C(=O)N[C@@H](C)C(=O)N[C@@H]([C@@H](C)O)C(=O)N1)[C@@H](C)O)C(=O)N[C@@H](CC(C)C)C(=O)N1CCC[C@H]1C(=O)N1CCC[C@H]1C(=O)N[C@H](C(=O)N[C@@H](CC(N)=O)C(=O)N[C@H](C(=O)NCC(=O)N[C@@H](CO)C(=O)NCC(=O)N[C@H](C(=O)N1C[C@H](O)C[C@H]1C(N)=O)[C@@H](C)O)C(C)C)[C@@H](C)O [PD041] (H-RCNTATCATQRLAEFLRHSSNNLK([γGlu-C20 diacid])PILPPTNVGSGT[Hyp]-NH2; disulfide 2-7)	0.259
CC[C@H](C)[C@H](NC(=O)[C@@H]1CCCN1C(=O)[C@H](CCCCN)NC(=O)[C@H](CC(C)C)NC(=O)[C@H](CC(N)=O)NC(=O)[C@H](CC(N)=O)NC(=O)[C@H](CO)NC(=O)[C@H](CO)NC(=O)[C@H](Cc1c[nH]cn1)NC(=O)[C@H](CCCNC(=N)N)NC(=O)[C@H](CC(C)C)NC(=O)[C@H](Cc1ccccc1)NC(=O)[C@H](CC(=O)O)NC(=O)[C@H](C)NC(=O)[C@H](CC(C)C)NC(=O)[C@H](CCCNC(=N)N)NC(=O)[C@H](CCC(N)=O)NC(=O)[C@@H](NC(=O)[C@H](C)NC(=O)[C@@H]1CSSC[C@H](NC(=O)[C@@H](N)CCCCNC(=O)CC[C@H](NC(=O)CCCCCCCCCCCCCCCCCCC(=O)O)C(=O)O)C(=O)N[C@@H](CC(N)=O)C(=O)N[C@@H]([C@@H](C)O)C(=O)N[C@@H](C)C(=O)N[C@@H]([C@@H](C)O)C(=O)N1)[C@@H](C)O)C(=O)N[C@@H](CC(C)C)C(=O)N1CCC[C@H]1C(=O)N1CCC[C@H]1C(=O)N[C@H](C(=O)N[C@@H](CC(N)=O)C(=O)N[C@H](C(=O)NCC(=O)N[C@@H](CO)C(=O)N[C@@H](CC(N)=O)C(=O)N[C@H](C(=O)N1C[C@H](O)C[C@H]1C(N)=O)[C@@H](C)O)C(C)C)[C@@H](C)O [PD072] (H-K([γGlu-C20 diacid])CNTATCATQRLADFLRHSSNNLKPILPPTNVGSNT[Hyp]-NH2; disulfide 2-7)	0.027

Source: patent publication US20260166128A1, “HUMAN AMYLIN ANALOG, AND DERIVATIVE THEREOF AND USE THEREOF” (priority 2022, published 2026)
